From patent publication US20260373135A1, “Methods of Treatment with Tradipitant” (Vanda Pharmaceuticals Inc., priority 2022, published 2026)

Legend:
[1] = target: T1, CYP3A4 (Homo sapiens, UniProt P08684); test: Role of CYP3A4 genotype (CYP3A4*22) in metabolism/clearance of tradipitant, phase III study pharmacokinetics; format: in vivo
Method: To investigate the role of CYP3A4 genotypes in the metabolism of tradipitant, pharmacokinetics are analyzed in view of CYP3A4 genotype in a phase III study of humans dosed with tradipitant. In the investigation, all CYP3A4 alleles (as recognized by the Human Cytochrome P450 Allele Nomenclature Database) are reviewed. The analysis includes a linear model that is tested on various ratios of parent compound (tradipitant) or its metabolites, including: • Ratio A=Sum of (M2+M3+M4)/M8, and • Ratio B=(tradipitant)/(M3).
After correction for covariates, including principal components (PCs), age, sex, and body mass index (BMI), CYP3A4*22 is identified as a variant of interest, with a p-value of 1×10^−5. […] The effect of multiple alleles of interest is cumulative, as shown by the median ratios present in individuals having a CYP3A4 genotype of *22/*1, i.e. heterozygous for the *22 variant of interest (*22 het), compared with individuals having a CYP3A4 genotype of *22/*22+*3/*1 genotype, i.e., homozygous for the *22 variant of interest.
The graphs shown in FIGS. 2A-2H illustrate the plasma concentrations of tradipitant (FIG. 2A), metabolite M2 (FIG. 2B), metabolite M3 (FIG. 2C), metabolite M4 (FIG. 2D), metabolite M8 (FIG. 2E), ratio of tradipitant to M8 (FIG. 2F), ratio of all metabolites to M8 (i.e., (M2+M3+M4)/M8) (FIG. 2G), and ratio of tradipitant to M3 (FIG. 2H) in individuals in a study population. […] This reflects the reduced ability to clear tradipitant in individuals having a *22 allele.
The apparent clearance of tradipitant is plotted for individuals having a wild type (WT) genotype as compared to individuals having a heterozygous *22 (*22 het) genotype. The ratio of clearance (CL) in *22 het to WT is calculated as exp (median (HET)-median (WT)). Below these calculations, the P value is reported for a t test comparing the ETA values. […] Post hoc ETAs are the following: log (individual value for clearance/typical value for clearance), where “typical value” is essentially the median value. […]

[2] = target: T1, CYP3A4; test: Co-administration of tradipitant with a CYP3A4 inhibitor; format: in vivo
Method: The method may further include administering tradipitant to the individual at a dose that is determined based upon whether or not a CYP3A4 inhibitor is co-administered with the tradipitant. In a case in which a CYP3A4 inhibitor is not being co-administered to the individual, the method includes administering tradipitant to the individual in a first amount, in a manner similar to the above-described case in which the individual has a CYP3A4 genotype associated with normal metabolism of tradipitant. However, in a case in which a CYP3A4 inhibitor is co-administered with tradipitant to the individual, then the method may include administering tradipitant to the individual in a second ament, where the second amount is smaller than the first amount, in a manner similar to the above-described case in which the individual has a CYP3A4 genotype that is associated with decreased metabolism of tradipitant relative to wildtype. In certain embodiments, the CYP3A4 inhibitor may be selected from amiodarone, aprepitant, cimetidine, ciprofloxacin, clarithromycin, diltiazem, erythromycin, fluconazole, grapefruit juice, itraconazole, ketoconazole, posaconazole, voriconazole, and verapamil. In particular embodiments, the CYP3A4 inhibitor may be considered a strong CYP3A4 inhibitor, and may be selected from: clarithromycin, itraconazole, ketoconazole, and posaconazole, or from ketoconazole and grapefruit juice.
As described above, in certain embodiments, the second, smaller amount of tradipitant may be about 60-90%, 60-85%, 60-80%, 60-75%, or 60-70% of the first amount; about 25-70%, 30-70%, 35-70%, 40-70%, 45-70%, 50-70%, 55-70%, or 60-70% of the first amount; about 35-95%, 40-90%, 50-80%, or 60-70% of the first amount; or about 66-68% of the first amount. The first amount is considered to be 100% of the amount that would be administered to an individual who is […] a CYP3A4 inhibitor with the tradipitant.
Therefore, the identification of an individual in need of treatment with tradipitant, who is or would be co-administered tradipitant and the CYP3A4 inhibitor, enables dosing with tradipitant in a manner that facilitates the desired exposure level of the patient to the parent compound and any active metabolites thereof. […]

[3] = Human metabolism of tradipitant in vitro and in vivo
Description: Factors affecting metabolic clearance of tradipitant and its metabolites impact an individual's exposure to the parent compound, as well as any active metabolites.

[4] = tested on: NK-1 receptors; settings: preclinical and clinical studies; cited from earlier work
[5] = co-administration with a CYP3A4 inhibitor

T1 sequence (P08684 whole entry): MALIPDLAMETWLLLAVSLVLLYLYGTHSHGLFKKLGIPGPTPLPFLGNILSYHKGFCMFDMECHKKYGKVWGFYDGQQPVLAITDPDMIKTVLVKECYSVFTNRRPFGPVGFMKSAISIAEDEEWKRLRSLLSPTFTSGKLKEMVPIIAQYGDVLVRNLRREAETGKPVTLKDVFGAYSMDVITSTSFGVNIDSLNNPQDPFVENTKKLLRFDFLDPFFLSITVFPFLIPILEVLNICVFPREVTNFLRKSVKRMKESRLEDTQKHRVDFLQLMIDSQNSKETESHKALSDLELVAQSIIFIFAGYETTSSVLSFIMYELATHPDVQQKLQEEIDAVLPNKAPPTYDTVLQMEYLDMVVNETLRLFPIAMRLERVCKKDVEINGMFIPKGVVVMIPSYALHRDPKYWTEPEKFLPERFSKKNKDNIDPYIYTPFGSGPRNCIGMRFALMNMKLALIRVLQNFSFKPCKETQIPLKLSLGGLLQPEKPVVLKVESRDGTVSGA

Structure (SMILES): O=C(c1ccccc1Cl)c1cccnc1-c1nnn(Cc2cc(C(F)(F)F)cc(C(F)(F)F)c2)c1-c1ccncc1 [tradipitant, {2-[1-(3,5-Bistrifluoromethylbenzyl)-5-pyridin-4-yl-1H-[1,2,3]triazol-4-yl]-pyridin-3-yl}-(2-chlorophenyl)-methanone]
- reduction of tradipitant clearance in *22 heterozygotes ([1]; CYP3A4*22 heterozygotes vs wild type): 34%
- median plasma concentration in *22 het vs wild type ([1]; CYP3A4*22 heterozygous vs wild type (*1/*1), plasma, FIGS. 2A-2D): clearly greater median concentrations
- median ratio of tradipitant to M8 in *22 het vs wild type ([1]; CYP3A4*22 heterozygous vs wild type, plasma, FIG. 2F): clearly greater median ratio of tradipitant to M8
- exposure to tradipitant with CYP3A4 inhibitors ([2]; co-administration with CYP3A4 inhibitors, particularly strong): increased exposure to tradipitant
- decrease in apparent clearance [2, 5]: about 26.3%
- increase in AUC [2, 5]: about 36%
- increase in Cmax [2, 5]: about 26%
- human metabolic pathways [3]: ketone reduction (metabolites M2, M4), N-glucuronidation (metabolite M8), pyridine N-oxidation (metabolites M3, M4), and glucuronidation (metabolite M8)
- blockade of brain NK-1 receptors [4]: long-lasting blockade of brain NK-1 receptors
